Laboratory results from publication PMC3914206.

What was measured:
Assay type in all cases: binding
Conditions in all cases: Compound Concentration 10 µM
panel of 442 kinases [1] = target: T1, panel of 442 kinases (Homo sapiens, UniProt P29317)
T1 construct: purchased KINOMEscan
Excerpt: (§1) We assessed the selectivity of members of this scaffold using the KINOMEscan methodology across a near comprehensive panel of 442 kinases [[18,27]].

panel of 442 kinases [2] = target: T2, panel of 442 kinases (Homo sapiens, UniProt P57058)
T2 construct: purchased KINOMEscan
T2 sequence (P57058 1-714): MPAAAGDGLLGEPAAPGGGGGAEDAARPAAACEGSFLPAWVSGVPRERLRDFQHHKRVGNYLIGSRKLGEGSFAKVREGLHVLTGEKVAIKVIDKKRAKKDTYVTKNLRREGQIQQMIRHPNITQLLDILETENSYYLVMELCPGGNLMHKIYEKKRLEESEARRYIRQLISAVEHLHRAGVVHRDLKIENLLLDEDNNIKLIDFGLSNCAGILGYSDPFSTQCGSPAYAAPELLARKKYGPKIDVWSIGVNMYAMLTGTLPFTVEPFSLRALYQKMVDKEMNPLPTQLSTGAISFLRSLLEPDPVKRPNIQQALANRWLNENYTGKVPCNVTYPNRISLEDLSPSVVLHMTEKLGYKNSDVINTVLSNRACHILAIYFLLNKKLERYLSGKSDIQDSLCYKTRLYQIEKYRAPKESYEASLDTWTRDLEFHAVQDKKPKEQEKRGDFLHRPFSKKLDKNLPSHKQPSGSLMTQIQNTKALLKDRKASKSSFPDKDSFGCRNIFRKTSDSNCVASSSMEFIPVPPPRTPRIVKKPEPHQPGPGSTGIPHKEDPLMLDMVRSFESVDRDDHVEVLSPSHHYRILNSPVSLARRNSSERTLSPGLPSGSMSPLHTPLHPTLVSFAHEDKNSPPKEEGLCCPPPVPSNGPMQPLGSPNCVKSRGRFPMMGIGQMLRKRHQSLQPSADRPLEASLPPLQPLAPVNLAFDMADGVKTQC
Excerpt: as §1

panel of 442 kinases [3] = target: T3, panel of 442 kinases (Homo sapiens, UniProt Q9UBF8)
T3 construct: purchased KINOMEscan
T3 sequence (Q9UBF8 whole entry): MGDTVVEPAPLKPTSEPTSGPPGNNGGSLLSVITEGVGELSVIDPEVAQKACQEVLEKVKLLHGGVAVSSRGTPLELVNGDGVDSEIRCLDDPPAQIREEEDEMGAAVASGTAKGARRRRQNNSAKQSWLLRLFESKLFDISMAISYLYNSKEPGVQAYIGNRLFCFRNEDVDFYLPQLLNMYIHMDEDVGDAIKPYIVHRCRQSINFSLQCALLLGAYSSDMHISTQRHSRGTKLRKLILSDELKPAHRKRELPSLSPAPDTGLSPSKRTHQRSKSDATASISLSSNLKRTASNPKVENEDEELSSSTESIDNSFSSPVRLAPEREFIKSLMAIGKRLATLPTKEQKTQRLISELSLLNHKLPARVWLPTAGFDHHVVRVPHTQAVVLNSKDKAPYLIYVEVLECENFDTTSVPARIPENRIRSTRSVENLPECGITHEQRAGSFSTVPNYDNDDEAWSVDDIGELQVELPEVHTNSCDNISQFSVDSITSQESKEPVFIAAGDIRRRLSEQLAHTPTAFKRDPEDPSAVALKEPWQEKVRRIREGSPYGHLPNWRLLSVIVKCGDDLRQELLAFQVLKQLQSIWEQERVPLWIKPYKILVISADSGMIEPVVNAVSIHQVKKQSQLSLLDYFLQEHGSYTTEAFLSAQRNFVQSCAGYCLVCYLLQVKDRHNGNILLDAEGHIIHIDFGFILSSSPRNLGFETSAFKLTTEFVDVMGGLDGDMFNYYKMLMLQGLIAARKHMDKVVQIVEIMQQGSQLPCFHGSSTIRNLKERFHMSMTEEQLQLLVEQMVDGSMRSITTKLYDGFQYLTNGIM
Excerpt: as §1

T1 sequence (P29317 24-976): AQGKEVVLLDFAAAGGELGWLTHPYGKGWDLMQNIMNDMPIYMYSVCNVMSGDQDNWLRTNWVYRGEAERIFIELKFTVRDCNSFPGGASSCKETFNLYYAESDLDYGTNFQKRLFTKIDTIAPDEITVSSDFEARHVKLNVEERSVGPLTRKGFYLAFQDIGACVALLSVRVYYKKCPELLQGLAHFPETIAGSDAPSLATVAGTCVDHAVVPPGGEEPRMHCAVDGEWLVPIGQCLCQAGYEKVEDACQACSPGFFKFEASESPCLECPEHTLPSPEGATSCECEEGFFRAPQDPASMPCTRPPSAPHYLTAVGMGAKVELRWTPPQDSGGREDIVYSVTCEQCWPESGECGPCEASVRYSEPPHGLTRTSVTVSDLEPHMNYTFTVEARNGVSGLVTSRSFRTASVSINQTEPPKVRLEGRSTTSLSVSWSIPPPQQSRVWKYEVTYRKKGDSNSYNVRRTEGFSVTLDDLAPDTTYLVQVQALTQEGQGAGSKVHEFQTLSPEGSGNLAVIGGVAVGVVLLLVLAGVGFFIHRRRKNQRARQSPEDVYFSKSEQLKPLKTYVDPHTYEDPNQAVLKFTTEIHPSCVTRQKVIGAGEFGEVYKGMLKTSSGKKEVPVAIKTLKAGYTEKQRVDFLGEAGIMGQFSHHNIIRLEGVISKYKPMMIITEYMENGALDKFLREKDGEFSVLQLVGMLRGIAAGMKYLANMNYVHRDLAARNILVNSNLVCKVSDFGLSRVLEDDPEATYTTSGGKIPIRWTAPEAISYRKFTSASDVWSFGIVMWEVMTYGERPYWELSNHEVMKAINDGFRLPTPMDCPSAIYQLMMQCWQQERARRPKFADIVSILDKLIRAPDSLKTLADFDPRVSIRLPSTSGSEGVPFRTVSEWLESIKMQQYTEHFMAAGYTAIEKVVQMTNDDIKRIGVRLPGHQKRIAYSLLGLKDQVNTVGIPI

| Structure (SMILES) | KINOMEscan: EPHA2 (panel of 442 kinases [1]) | KINOMEscan: HUNK (panel of 442 kinases [2]) | KINOMEscan: PIK4CB (panel of 442 kinases [3]) |
| --- | --- | --- | --- |
| CCOc1cc(C(=O)N2CCC(N3CCN(C)CC3)CC2)ccc1Nc1ncc2c(n1)N(C1CCCC1)c1ccccc1C(=O)N2C [Compound 26] | 100 | 53 | 100 |
| COc1cc(C(=O)N2CCC(N3CCN(C)CC3)CC2)ccc1Nc1ncc2c(n1)N(C1CCCC1)c1ccccc1C(=O)N2C [Compound 25, 11-cyclopentyl-2-((2-methoxy-4-(4-(4-methylpiperazin-1-yl)piperidine-1-carbonyl)phenyl)amino)-5-methyl-5H-benzo[e]pyrimido[5,4-b][1,4]diazepin-6(11H)-one] | 100 | 100 | 100 |
| COc1cc(C(=O)N2CCC(N3CCN(C)CC3)CC2)ccc1Nc1ncc2c(n1)N1CCc3cccc(c31)C(=O)N2C [Compound 24] | 95 | – | – |
| COc1cc(C(=O)N2CCC(N3CCN(C)CC3)CC2)ccc1Nc1ncc2c(n1)N(C)c1ccccc1C(=O)N2C [15 (LRRK2-IN-1)] | 92 | 100 | 95 |
